According to ChEMBL document CHEMBL1137330, “Synthesis and pharmacokinetics of valopicitabine (NM283), an efficient prodrug of the potent anti-HCV agent 2'-C-methylcytidine” (J Med Chem, 2006):
In brackets after ≈: the same amount, converted by molar mass.

Assays:
[1] = Urinary excretion in bile duct cannulated Sprague-Dawley rat at 100 mg/kg, po after 72 hrs; format: ADME, organism-based; design: dose 100 mg/kg, route oral; conditions: urine, read-out: Activity
[2] = Fecal excretion in intact Sprague-Dawley rat at 100 mg/kg, po after 168 hrs; format: ADME, organism-based; design: dose 100 mg/kg, route oral; conditions: faeces, read-out: Activity
[3] = Fecal excretion in bile duct cannulated Sprague-Dawley rat at 100 mg/kg, po after 72 hrs; format: ADME, organism-based; design: dose 100 mg/kg, route oral; conditions: faeces, read-out: Activity
Rattus norvegicus [4] = experiment: Urinary excretion in intact Sprague-Dawley rat at 100 mg/kg, po after 168 hrs; format: ADME, organism-based, Urine; design: dose 100 mg/kg, route oral; conditions: in vivo
[5] = Biliary excretion in bile duct cannulated Sprague-Dawley rat at 100 mg/kg, po after 72 hrs; format: ADME, organism-based; design: dose 100 mg/kg, route oral; conditions: read-out: Activity
Rattus norvegicus [6] = experiment: (§1) AUC (0-t) in jugular vein cannulated Sprague-Dawley rat at 100 mg/kg, po; format: ADME, organism-based, Plasma; design: dose 100 mg/kg, route oral; conditions: in vivo
[7] = Protein binding in rat plasma at 20 uM; format: ADME, cell-free; conditions: read-out: PPB (converted)
[8] = Chemical stability at pH 1.2; format: physicochemical; conditions: buffer
Rattus norvegicus [9] = experiment: AUC(0-t) in jugular vein cannulated Sprague-Dawley rat at 100 mg/kg, po administered as prodrug; format: ADME, organism-based, Plasma; design: dose 100 mg/kg, route oral; conditions: in vivo
[10] = Cmax in Sprague-Dawley rat after 15 days at 60 mg/kg/day, iv; format: ADME, organism-based; design: dose 60 mg/kg/day, route intravenous; conditions: in vivo
[11] = Distribution coefficient, log P of the compound; format: physicochemical; conditions: octanol/water
[12] = Chemical stability at pH 4.5; format: physicochemical; conditions: buffer
Rattus norvegicus [13] = experiment: Apparent oral bioavailability in jugular vein cannulated Sprague-Dawley rat at 100 mg/kg, po administered as prodrug; format: ADME, organism-based; conditions: in vivo
Rattus norvegicus [14] = experiment: Cmax in jugular vein cannulated Sprague-Dawley rat at 100 mg/kg, po administered as prodrug; format: ADME, organism-based; design: dose 100 mg/kg, route oral; conditions: in vivo
[15] = AUC in Sprague-Dawley rat after 15 days at 60 mg/kg/day, iv; format: ADME, organism-based; design: route intravenous; conditions: plasma
Rattus norvegicus [16] = experiment: Tmax in jugular vein cannulated Sprague-Dawley rat at 100 mg/kg, po administered as prodrug; format: ADME, organism-based; design: dose 100 mg/kg, route oral; conditions: in vivo
[17] = Aqueous solubility of the compound; format: physicochemical
Rattus norvegicus [18] = experiment: Terminal half life in jugular vein cannulated Sprague-Dawley rat at 100 mg/kg, po administered as prodrug; format: ADME, organism-based; design: dose 100 mg/kg, route oral; conditions: in vivo
[19] = Chemical stability at pH 7.2; format: physicochemical; conditions: buffer
Plasma = experiment: Drug level in jugular vein cannulated Sprague-Dawley rat plasma after 12 hrs; format: ADME, cell-free
[20] = Half life in human whole blood; format: ADME, organism-based
[21] = Half life at pH 4.5; format: ADME; conditions: buffer
[22] = Tmax in jugular vein cannulated Sprague-Dawley rat at 100 mg/kg, po; format: ADME, organism-based; design: dose 100 mg/kg, route oral; conditions: in vivo
Homo sapiens [23] = organism: Homo sapiens; experiment: Half life in human plasma
[24] = as §1; format: ADME, organism-based, Plasma; design: dose 100 mg/kg, route oral; conditions: Sprague-Dawley, plasma
[25] = Terminal half life in jugular vein cannulated Sprague-Dawley rat at 100 mg/kg, po; format: ADME, organism-based; design: dose 100 mg/kg, route oral; conditions: in vivo, read-out: beta t1/2 (converted)
[26] = Half life at pH 7.2; format: ADME; conditions: buffer
Homo sapiens [27] = organism: Homo sapiens; experiment: Conversion of prodrug to 2'-C-methylcytidine in human liver S9 fraction; format: ADME, organism-based
Homo sapiens [28] = organism: Homo sapiens; experiment: Conversion of prodrug to 2'-C-methylcytidine in human liver cytosol; format: ADME, organism-based
[29] = Cmax in jugular vein cannulated Sprague-Dawley rat at 100 mg/kg, po; format: ADME, organism-based; design: dose 100 mg/kg, route oral; conditions: in vivo

For CC(C)C(N)C(=O)O[C@H]1[C@H](CO)O[C@H](n2ccc(N)nc2=O)[14C@@]1(C)O.Cl.Cl (stereo partly drawn), which dose excreted at 72 h [1] is on record?
Its dose excreted at 72 h is 29.8%.

What about the dose excreted at 168 h [2] of the same compound?
Its dose excreted at 168 h is 63.5%.

And the dose excreted at 72 h [3]?
Its dose excreted at 72 h is 65.9%.

And the Activity (Rattus norvegicus [4])?
The Activity was 31.9%.

And the dose excreted at 72 h [5]?
Its dose excreted at 72 h is 0.3%.

For C[C@@]1(O)[C@@H](n2ccc(=O)[nH]c2=O)O[C@@H](CO)[C@@H]1O, which AUC (Rattus norvegicus [6]) is on record?
Its AUC is < 0.1 µg/mL.

With C[C@@]1(O)[C@H](O)[C@@H](CO)O[C@H]1n1ccc(N)nc1=O as the compound, how does the fraction unbound at 20 µM [7] read?
The fraction unbound at 20 µM was 0.95.

What about the Stability [8] of the same compound?
Its Stability is “Stable”.

And the AUC (Rattus norvegicus [9])?
Its AUC is 30000 ng·h/mL.

What about the Cmax [10] of the same compound?
Its Cmax is 75600 ng/mL.

What about the logP [11] of the same compound?
The logP was -0.965.

What about the Stability [12] of the same compound?
Its Stability is “Stable”.

What about the F (Rattus norvegicus [13]) of the same compound?
Its F is 33.6%.

What about the Cmax (Rattus norvegicus [14]) of the same compound?
The Cmax was 6120 ng/mL.

And the AUC at 360 h [15]?
Its AUC at 360 h is 74400 ng·h/mL.

And the Tmax (Rattus norvegicus [16])?
Its Tmax is 2 h.

What about the solubility [17] of the same compound?
The solubility was 32 mg/mL (≈ 124 mM).

What about the “beta t1/2” value (Rattus norvegicus [18]) of the same compound?
Its value is 7.1 h.

And the Stability [19]?
The Stability was “Stable”.

For CC(C)[C@H](N)C(=O)O[C@@H]1[C@@H](CO)O[C@@H](n2ccc(N)nc2=O)[C@]1(C)O.Cl.Cl [VALOPICITABINE DIHYDROCHLORIDE], which Activity (Plasma) is on record?
Its Activity is “Not Active”.

What about the fraction unbound at 20 µM [7] of the same compound?
Its fraction unbound at 20 µM is 0.93.

What about the half-life [20] of the same compound?
The half-life was 0.667 h.

What about the logP [11] of the same compound?
Its logP is -1.34.

And the half-life [21]?
The half-life was 146 h.

What about the Tmax [22] of the same compound?
The Tmax was 1 h.

What about the half-life (Homo sapiens [23]) of the same compound?
The half-life was 2.17 h.

And the AUC(0-t) [24]?
Its AUC(0-t) is 8950 ng·h/mL.

And the half-life [25]?
Its half-life is 0.64 h.

And the half-life [26]?
The half-life was 3.9 h.

What about the solubility [17] of the same compound?
The solubility was 423 mg/mL.

And the Activity (Homo sapiens [27])?
Its Activity is 30%.

What about the Activity (Homo sapiens [28]) of the same compound?
Its Activity is 30%.

What about the Cmax [29] of the same compound?
Its Cmax is 3620 ng/mL.
